Reference: ChEMBL document CHEMBL1128178, “Kynurenic acid derivatives inhibit the binding of nerve growth factor (NGF) to the low-affinity p75 NGF receptor” (J Med Chem, 1995)

target: T1, Tumor necrosis factor receptor superfamily member 16 (Homo sapiens, UniProt P08138); assay: Inhibition of [125I]- NGF binding to extracellular domain of p75 receptor; IA=Inactive
T1 sequence (P08138 whole entry): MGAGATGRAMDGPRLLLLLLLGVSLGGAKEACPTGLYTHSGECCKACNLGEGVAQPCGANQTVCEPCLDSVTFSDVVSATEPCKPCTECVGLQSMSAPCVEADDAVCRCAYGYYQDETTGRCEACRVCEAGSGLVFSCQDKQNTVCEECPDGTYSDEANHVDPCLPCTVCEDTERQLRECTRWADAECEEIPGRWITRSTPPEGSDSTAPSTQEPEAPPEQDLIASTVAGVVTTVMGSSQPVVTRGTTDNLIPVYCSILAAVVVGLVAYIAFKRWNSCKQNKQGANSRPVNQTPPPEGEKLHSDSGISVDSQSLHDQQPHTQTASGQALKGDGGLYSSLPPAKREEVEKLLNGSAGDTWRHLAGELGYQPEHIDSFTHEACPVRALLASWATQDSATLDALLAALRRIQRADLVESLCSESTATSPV

Compound | IC50
O=C(O)c1ccc2nc(C(=O)O)cc(O)c2c1 | Not Active
Cc1ccc(C(=O)Nc2ccc3c(O)cc(C(=O)O)nc3c2)cc1 | Not Active
O=C(O)c1ccc2c(O)cc(C(=O)O)nc2c1 | Not Active
O=C(O)c1cc(=O)c2ccccc2[nH]1 [TRANSTORINE] | Not Active
Cc1ccc(C(=O)Nc2ccc3c(c2)c(=O)cc(C(=O)O)n3C)cc1 | Not Active
Cn1c(C(=O)O)cc(=O)c2cc(N)ccc21 | Not Active
O=C(O)c1cc(O)c2c(Cl)cc(Cl)cc2n1 | Not Active
Cc1ccc(C(=O)Nc2ccc3nc(C(=O)O)cc(O)c3c2)cc1 | Not Active
O=C(O)c1cc(O)c2c(C(=O)O)cccc2n1 | Not Active
O=C(O)c1cc(O)c2cc([N+](=O)[O-])ccc2n1 | Not Active
NC(=O)c1ccc2nc(C(=O)O)cc(O)c2c1 | Not Active

target: T2, Tumor necrosis factor receptor superfamily member 16 (Homo sapiens) (UniProt P08138); assay: Percent inhibition of [125I]- NGF binding to extracellular domain of p75 receptor at 10 uM
T2 sequence (whole entry): T1 sequence (P08138 whole entry)

Compound | inhibition [%]
Nc1cccc2nc(C(=O)O)cc(O)c12 | 50
COc1cc(C(=O)O)nc2ccc(NC(=O)c3ccc(C)cc3)cc12 | 29
Nc1ccc2c(O)cc(C(=O)O)nc2c1 | 37
Cc1ccc(C(=O)Nc2cccc3nc(C(=O)O)cc(O)c23)cc1 | 38
COc1cc(C(=O)O)nc2ccc(N)cc12 | 28

target: T1, Tumor necrosis factor receptor superfamily member 16; assay: Inhibition of [125I]- NGF binding to extracellular domain of p75 receptor

Compound | IC50 [nM]
Cn1c2ccc(NC(=O)c3ccccc3)cc2c(=O)n2nc(C(=O)O)cc12 | 200
COC(=O)c1c(C)sc2c(O)cc(C(=O)Nn3cnnn3)nc12 | 1300
COC(=O)c1c(C)sc2c(O)cc(C(=O)O)nc12 | 2300
Nc1ccc2nc(C(=O)O)cc(O)c2c1 | 3100
